US12459932B2, “KIF18A inhibitors” (AMGEN INC., priority 2018, dated 2025)

The molecules below were run against T1, Recombinant human KIF18A (1-467 His-tagged) (Homo sapiens, UniProt Q8NI77) (assay: KIF18A Enzyme Assay: microtubule-stimulated ATPase activity (ADP-Glo)). Conditions: 30 nM KIF18A, 30 μg/mL pig microtubules, ATP 75 μM (Km), ADP-Glo luminescence.
T1 construct: Recombinant human KIF18A (1-467 His-tagged) protein; His
Type: biochemical
Outline: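 Measures microtubule-stimulated ATPase activity as ADP formed, detected by luminescence. Compounds were tested as 2-fold serial dilutions over 22 points. IC50 values came from four-parameter logistic fits.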

T1 sequence (Q8NI77 1-467): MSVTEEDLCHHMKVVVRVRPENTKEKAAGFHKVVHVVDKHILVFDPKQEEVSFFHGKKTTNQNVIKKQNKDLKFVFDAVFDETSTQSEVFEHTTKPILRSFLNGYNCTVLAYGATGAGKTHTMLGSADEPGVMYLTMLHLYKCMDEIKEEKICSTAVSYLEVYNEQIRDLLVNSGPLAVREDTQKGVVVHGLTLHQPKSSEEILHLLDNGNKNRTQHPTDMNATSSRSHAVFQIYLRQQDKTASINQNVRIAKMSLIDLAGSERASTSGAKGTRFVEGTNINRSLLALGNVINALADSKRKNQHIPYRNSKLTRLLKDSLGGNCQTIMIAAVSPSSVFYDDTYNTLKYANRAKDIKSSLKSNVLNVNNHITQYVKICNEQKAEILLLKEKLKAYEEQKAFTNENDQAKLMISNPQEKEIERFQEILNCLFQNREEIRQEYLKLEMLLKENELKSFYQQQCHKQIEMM
T1 sequence (P02550 whole entry partner): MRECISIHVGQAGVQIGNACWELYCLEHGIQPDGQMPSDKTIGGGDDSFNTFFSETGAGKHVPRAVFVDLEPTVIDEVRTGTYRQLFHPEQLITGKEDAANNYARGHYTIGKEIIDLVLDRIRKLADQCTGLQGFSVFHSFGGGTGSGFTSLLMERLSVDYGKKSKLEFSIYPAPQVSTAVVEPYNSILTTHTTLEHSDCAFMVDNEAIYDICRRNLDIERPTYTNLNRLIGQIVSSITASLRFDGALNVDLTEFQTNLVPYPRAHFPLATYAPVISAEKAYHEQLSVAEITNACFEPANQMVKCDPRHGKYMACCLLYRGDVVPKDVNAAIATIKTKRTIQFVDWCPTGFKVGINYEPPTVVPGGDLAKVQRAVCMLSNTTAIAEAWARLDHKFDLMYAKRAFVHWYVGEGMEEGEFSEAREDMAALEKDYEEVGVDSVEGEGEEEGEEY
T1 sequence (P02554 whole entry partner): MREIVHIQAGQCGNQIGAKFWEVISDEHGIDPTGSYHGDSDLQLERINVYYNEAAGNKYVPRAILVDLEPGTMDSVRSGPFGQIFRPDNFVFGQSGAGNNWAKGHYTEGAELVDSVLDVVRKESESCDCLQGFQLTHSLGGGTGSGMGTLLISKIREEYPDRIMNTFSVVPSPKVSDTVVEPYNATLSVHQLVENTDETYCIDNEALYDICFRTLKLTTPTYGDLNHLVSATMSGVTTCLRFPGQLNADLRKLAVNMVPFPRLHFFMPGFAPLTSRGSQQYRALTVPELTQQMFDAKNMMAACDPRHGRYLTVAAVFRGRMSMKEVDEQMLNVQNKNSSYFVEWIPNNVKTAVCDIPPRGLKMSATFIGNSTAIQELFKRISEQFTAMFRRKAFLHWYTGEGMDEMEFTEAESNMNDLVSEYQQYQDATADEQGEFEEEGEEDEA

Row | IC50 | SMILES
1 | 90 nM | C[C@@H]1CN(c2cccc(NC(=O)c3ccc(NS(=O)(=O)C4(F)CC4)cc3N3CCC4(CC3)CC4)n2)CCO1 [Example 7-15, (R)-4-((1-Fluorocyclopropane)-1-sulfonamido)-N-(6-(2-methylmorpholino)pyridin-2-yl)-2-(6-azaspiro[2.5]octan-6-yl)benzamide]
2 | 34 nM | CC(C)S(=O)(=O)c1ccc(C(=O)Nc2cccc(N3CCO[C@H](C)C3)n2)c(N2CCC3(CC2)CC3)c1 [Example 2, (R)-4-(Isopropylsulfonyl)-N-(6-(2-methylmorpholino)pyridin-2-yl)-2-(6-azaspiro[2.5]octan-6-yl)benzamide]
3 | 89 nM | Cc1cc(NC(=O)c2ccc(S(=O)(=O)NC3(C)COC3)cc2N2CCC3(CC2)CC3)nc(C(C)(C)O)c1 [Example 4-18, N-(6-(2-Hydroxypropan-2-yl)-4-methylpyridin-2-yl)-4-(N-(3-methyloxetan-3-yl)sulfamoyl)-2-(6-azaspiro[2.5]octan-6-yl)benzamide]
4 | 343 nM | C[C@@H]1CN(c2cccc(NC(=O)c3ccc(NS(=O)(=O)CCC(F)(F)F)cc3N3CCC4(CC3)CC4)n2)CCO1 [Example 7-14, (R)-N-(6-(2-Methylmorpholino)pyridin-2-yl)-2-(6-azaspiro[2.5]octan-6-yl)-4-((3,3,3-trifluoropropyl)sulfonamido)benzamide]
5 | 36 nM | C[C@H]1CN(c2cccc(NC(=O)c3ccc(NS(=O)(=O)[C@@H](C)CO)cc3N3CCC4(CC3)CC4)n2)CCO1 (single isomer, unassigned) [Example 9-18]
6 | 111 nM | C[C@@H]1CN(c2cccc(NC(=O)c3ccc(NS(=O)(=O)CC(C)(C)O)cc3N3CCC4(CC3)CC4)n2)CCO1 [Example 7-42, (R)-4-((2-Hydroxy-2-methylpropyl)sulfonamido)-N-(6-(2-methylmorpholino)pyridin-2-yl)-2-(6-azaspiro[2.5]octan-6-yl)benzamide]
7 | 119 nM | Cc1cc(NC(=O)c2ccc(S(=O)(=O)NC3(C)COC3)cc2N2CCC3(CC2)CC3)nc(N2CCO[C@H](C)C2)c1 [Example 1-8, (R)-N-(4-Methyl-6-(2-methylmorpholino)pyridin-2-yl)-4-(N-(3-methyloxetan-3-yl)sulfamoyl)-2-(6-azaspiro[2.5]octan-6-yl)benzamide]
8 | 48 nM | C[C@@H]1CN(c2cccc(NC(=O)c3ccc(NS(=O)(=O)[C@@H](C)CO)cc3N3CCC4(CC3)CC4)n2)CCO1 (single isomer, unassigned) [Example 9-16]
9 | 86 nM | CC(C)(C)NS(=O)(=O)c1ccc(C(=O)Nc2cccc(N3CCO[C@H](CO)C3)n2)c(N2CCC3(CC2)CC3)c1 [Example 4-3, (S)-4-(N-(tert-Butyl)sulfamoyl)-N-(6-(2-(hydroxymethyl)morpholino)pyridin-2-yl)-2-(6-azaspiro[2.5]octan-6-yl)benzamide]
10 | 73 nM | CC1(S(=O)(=O)Nc2ccc(C(=O)Nc3cccc(N4CCO[C@@H](CO)C4)n3)c(N3CCC4(CC3)CC4)c2)CC1 [Example 3-11, (R)-N-(6-(2-(Hydroxymethyl)morpholino)pyridin-2-yl)-4-((1-methylcyclopropane)-1-sulfonamido)-2-(6-azaspiro[2.5]octan-6-yl)benzamide]
11 | 12 nM | Cc1ccc(NC(=O)c2ccc(NS(=O)(=O)CCO)cc2N2CCC3(CC2)CC3)nc1N1CCOCC1 [Example 18, 4-((2-Hydroxyethyl)sulfonamido)-N-(5-methyl-6-morpholinopyridin-2-yl)-2-(6-azaspiro[2.5]octan-6-yl)benzamide]
12 | 103 nM | Cc1cc(NC(=O)c2ccc(S(=O)(=O)CCO)cc2N2CCC3(CC2)CC3)nc(N2CCO[C@H](C)C2)c1 [Example 2-7, (R)-4-((2-Hydroxyethyl)sulfonyl)-N-(4-methyl-6-(2-methylmorpholino)pyridin-2-yl)-2-(6-azaspiro[2.5]octan-6-yl)benzamide]
13 | 59 nM | Cc1cc(NC(=O)c2ccc(NS(=O)(=O)CCO)cc2N2CCC3(CC2)CC3)nc(OCC(C)(C)O)c1 [Example 17-2, N-(6-(2-Hydroxy-2-methylpropoxy)-4-methylpyridin-2-yl)-4-((2-hydroxyethyl)sulfonamido)-2-(6-azaspiro[2.5]octan-6-yl)benzamide]
14 | 18 nM | Cc1cc(NC(=O)c2ccc(NS(=O)(=O)[C@@H](C)CO)cc2N2CCC3(CC2)CC3)nc(N2CCOCC2)c1 (single isomer, unassigned) [Example 9-14]
15 | 55 nM | C[C@@H]1CN(c2cccc(NC(=O)c3ccc(NS(=O)(=O)N(C)C)cc3N3CCC4(CC3)CC4)n2)CCO1 [Example 7-5, (R)-4-((N,N-Dimethylsulfamoyl)amino)-N-(6-(2-methylmorpholino)pyridin-2-yl)-2-(6-azaspiro[2.5]octan-6-yl)benzamide]
16 | 72 nM | CCS(=O)(=O)Nc1ccc(C(=O)Nc2cc(C)cc(N3CCO[C@H](C)C3)n2)c(N2CCC3(CC2)CC3)c1 [Example 7-8, (R)-4-(Ethylsulfonamido)-N-(4-methyl-6-(2-methylmorpholino)pyridin-2-yl)-2-(6-azaspiro[2.5]octan-6-yl)benzamide]

Row | IC50 | SMILES
17 | 46 nM | CC1(S(=O)(=O)Nc2ccc(C(=O)Nc3cccc(N4CCC(F)(F)CC4)n3)c(N3CCC4(CC3)CC4)c2)CC1 [Example 4-9, N-(6-(4,4-Difluoropiperidin-1-yl)pyridin-2-yl)-4-((1-methylcyclopropane)-1-sulfonamido)-2-(6-azaspiro[2.5]octan-6-yl)benzamide]
18 | 37 nM | C[C@H](CO)S(=O)(=O)Nc1ccc(C(=O)Nc2cccc(N3CCC(F)(F)CC3)n2)c(N2CCC3(CC2)CC3)c1 (single isomer, unassigned) [Example 9-10]
19 | 38 nM | CC1(S(=O)(=O)Nc2ccc(C(=O)Nc3cccc(N4CCCC(F)(F)C4)n3)c(N3CCC4(CC3)CC4)c2)CC1 [Example 3-14, N-(6-(3,3-Difluoropiperidin-1-yl)pyridin-2-yl)-4-((1-methylcyclopropane)-1-sulfonamido)-2-(6-azaspiro[2.5]octan-6-yl)benzamide]
20 | 81 nM | Cc1cc(NC(=O)c2ccc([S@](=N)(=O)C3CC3)cc2N2CCC3(CC2)CC3)nc(N2CCC(F)(F)CC2)c1 (single isomer, unassigned) [Example 30-1, 2-(6-Azaspiro[2.5]octan-6-yl)-4-(S-cyclopropylsulfonimidoyl)-N-(6-(4,4-difluoro-1-piperidinyl)-4-methyl-2-pyridinyl)benzamide]
21 | 165 nM | Cc1cc(NC(=O)c2ccc(S(=N)(=O)C3CC3)cc2N2CCC3(CC2)CC3)nc(N2CCO[C@H](C)C2)c1 (single isomer, unassigned) [Example 29-1]
22 | 43 nM | C[C@@H]1CN(c2cccc(NC(=O)c3ccc(S(=O)(=O)NC4(C)COC4)cc3N3CCC4(CC3)CC4)n2)CCO1 [Example 4-11, (R)-N-(6-(2-Methylmorpholino)pyridin-2-yl)-4-(N-(3-methyloxetan-3-yl)sulfamoyl)-2-(6-azaspiro[2.5]octan-6-yl)benzamide]
23 | 59 nM | Cc1cc(NC(=O)c2ccc(S(=N)(=O)C3CC3)cc2N2CCC3(CC2)CC3)nc(N2CCO[C@H](C)C2)c1 (stereo in doubt) [Example 29-2, 2-(6-Azaspiro[2.5]octan-6-yl)-4-(R-cyclopropylsulfonimidoyl)-N-(4-methyl-6-((2R)-2-methyl-4-morpholinyl)-2-pyridinyl)benzamide]
24 | 63 nM | C[C@@H]1CN(c2cccc(NC(=O)c3ccc(NS(=O)(=O)C4COC4)cc3N3CCC4(CC3)CC4)n2)CCO1 [Example 7-10, (R)-N-(6-(2-Methylmorpholino)pyridin-2-yl)-4-(oxetane-3-sulfonamido)-2-(6-azaspiro[2.5]octan-6-yl)benzamide]
25 | 182 nM | C[C@@H]1CN(c2cccc(NC(=O)c3ccc([S@@](=N)(=O)C(C)(C)C)cc3N3CCC4(CC3)CC4)n2)CCO1 (single isomer, unassigned) [Example 13-2]
26 | 37 nM | Cc1cc(NC(=O)c2ccc(S(=N)(=O)C3CC3)cc2N2CCC3(CC2)CC3)nc(N2CC(F)(F)C2)c1 (stereo in doubt) [Example 28-2, 2-(6-Azaspiro[2.5]octan-6-yl)-4-(R-cyclopropylsulfonimidoyl)-N-(6-(3,3-difluoro-1-azetidinyl)-4-methyl-2-pyridinyl)benzamide]
27 | 32 nM | C[C@@H]1CN(c2cccc(NC(=O)c3ccc(S(=O)(=O)CCO)cc3N3CCC4(CC3)CC4)n2)CCO1 [Example 2-1, (R)-4-((2-Hydroxyethyl)sulfonyl)-N-(6-(2-methylmorpholino)pyridin-2-yl)-2-(6-azaspiro[2.5]octan-6-yl)benzamide]
28 | 39 nM | C[C@@H]1CN(c2cccc(NC(=O)c3ccc(NS(C)(=O)=O)cc3N3CCC4(CC3)CC4)n2)CCO1 [Example 7-2, (R)-N-(6-(2-Methylmorpholino)pyridin-2-yl)-4-(methylsulfonamido)-2-(6-azaspiro[2.5]octan-6-yl)benzamide]
29 | 51 nM | C[C@@H]1CN(c2cccc(NC(=O)c3ccc(S(=O)(=O)NC(C)(C)C)cc3N3CCC4(CC3)CC4)n2)CCO1 [Example 1-6, (R)-4-(N-(tert-Butyl)sulfamoyl)-N-(6-(2-methylmorpholino)pyridin-2-yl)-2-(6-azaspiro[2.5]octan-6-yl)benzamide]
30 | 57 nM | Cc1cc(NC(=O)c2ccc(NS(=O)(=O)[C@@H](C)CO)cc2N2CCC3(CC2)CC3)nc(N2CC(F)(F)C2)c1 (single isomer, unassigned) [Example 9-6]
31 | 55 nM | CC(C)(C)NS(=O)(=O)c1cccc(NC(=O)c2ccc(NS(C)(=O)=O)cc2N2CCC3(CC2)CC3)n1 [Example 7-43, N-(6-(N-(tert-Butyl)sulfamoyl)pyridin-2-yl)-4-(methylsulfonamido)-2-(6-azaspiro[2.5]octan-6-yl)benzamide]

Row | SMILES | IC50
32 | Cc1cc(NC(=O)c2ccc(NS(=O)(=O)C3(CO)CC3)cc2N2CCC3(CC2)CC3)nc(N2CCC(F)(F)CC2)c1 [Example 10, N-(6-(4,4-Difluoropiperidin-1-yl)-4-methylpyridin-2-yl)-4-((1-(hydroxymethyl)cyclopropane)-1-sulfonamido)-2-(6-azaspiro[2.5]octan-6-yl)benzamide] | 122 nM
